Results on two molecules are retold here after patent US11931345B2, “Thiazolidinedione analogs for the treatment of NAFLD and metabolic diseases” (Cirius Therapeutics, Inc., priority 2018, dated 2024).

Molecules are shown by their SMILES.

For assay [1], the system named is ZDSD/Pco rats challenged with a high fat diet. The assay is described as follows: ZDSD/Pco rats on high fat diet: circulating glucose, insulin, OGTT. The class given is in vivo, rat. The settings on record: over 4 week treatment, compared to group 2 (control treatment on high fat diet); oral MSDC-0602 30 mg/kg, exenatide s.q. 1 μg. The protocol:
(§1) Male ZDSD/Pco rats were maintained on standard chow 5008 (Purina) until treatment groups were switched to the high fat diet (Purina 5SCA). […] Control rats (given both vehicles) were maintained on the normal diet and the treatment groups were switched to the high fat diet as indicated. Glucose and insulin were measured weekly from tail vein samples. On day 36 an oral glucose tolerance test (OGTT); 2 g/kg) was conducted after a 16 hour fast. Glucose samples were taken at 0, 30, 60, 90, and 120 minutes; insulin was measured at 0 and 30 minutes and the change at 30 minutes is shown. Data are mean and SE; N=10. At sacrifice, the pancreas was fixed in formalin and shipped to MSU for histology and IHC. A range of anti-bodies were used to identify and quantify the presence of insulin, Ki67, collagen, CD3 lymphocytes, PDX-1 and Bcl2. An Image-Pro system was used with Image J to quantify the degree of positive staining. […] Five matched groups of ZDSD/Pco rats were selected at 14 weeks of age and then treated for 6 weeks. […] At sacrifice, the pancreas was removed, fixed, and stained for insulin, PDX1, and Ki67, as an index of proliferation.

The test system of the next assay is pancreatic islets. The assay is described as follows: Pancreas histology and IHC of ZDSD/Pco rats (insulin, Ki67, PDX-1, Bcl2). The settings on record: pancreas at sacrifice; high fat diet; oral MSDC-0602 30 mg/kg, exenatide s.q. 1 μg. The class given is in vivo, rat. The protocol:
as §1

Assay [2] has as its system diet-induced obese (60% HF diet) WT (fl/fl) and LS-MPC2-/- mice. The assay is described as follows: Intraperitoneal glucose tolerance test and plasma insulin in diet-induced obese WT and LS-MPC2-/- mice after a single dose. The settings on record: for glucose tolerance (GTT): 20 h after a single dose of 30 mg/kg; for plasma insulin: single dose 30 mg/kg. Format: in vivo, mouse. As to the method:
(§2) 8 week old WT and LS-MPC2−/− mice were fed a diet of 60% fat (Research Diets D12492) for 20 weeks to induce obesity and insulin resistance. Intraperitoneal glucose tolerance tests (GTT) were performed after a 4 h fast by injection of 1 g/kg D-glucose in saline i.p. to assess glucose tolerance. 3 days after the initial GTT, mice were randomized to receive a single gavage of either vehicle (1% CMC, 0.01% Tween-80) or 30 mg/kg MSDC-0602K. Plasma insulin was measured by Singulex assay and plasma ALT levels were measured by commercially-available kits (Teco Diagnostics). qPCR was performed by isolation of total RNA with RNA-Bee and reverse transcription with a high-capacity cDNA synthesis kit (Invitrogen). qPCR was performed on an Applied Biosystems real-time thermocycler.

Assay [3] has the same test system. The assay is described as follows: Markers of liver injury (plasma ALT, qPCR gene expression) in obese WT and LS-MPC2-/- mice after a single dose. Format: in vivo, mouse. The protocol: as §2
The next assay deals with serum miRNAs. The assay is described as follows: Serum miRNA sequencing in NASH (HTF-C) diet mice. Format: in vivo, mouse. As to the method: To begin evaluating the exosome cargo of MSDC-0602K-treated mice, WT mice were fed with either a low fat (LF) control diet (Research Diets D09100304) or high trans-fat, fructose, cholesterol (HTF-C) diet composed of 40% trans-fat, 20% fructose, 2% cholesterol (Research Diets D09100301).
Total RNA was isolated from 400 μL of serum and small RNA sequencing was performed by adapter ligation, cDNA synthesis and size selection of 145-160 base pairs. Sequencing was then performed on an Illumina HiSeq3000.

Assay [4] relates to uncoupling protein 1 (UCP1). The assay is described as follows: UCP1 expression (Western blot) in brown adipose precursors in vitro, with T3. The settings on record: added to T3 0 to 30 nM; sensitivity and magnitude of response; FIG. 14. The class given is cell-based. An excerpt: FIG. 14. Is a graphic representation of the data of thyroid hormone with MSDC-0602 in vitro.
The addition of the thyroid agonist not only increases the maximum response. […] The response measured here is increased expression of the uncoupling protein 1 (UCP1) on Western blot—a measure of differentiation of brown adipose cells.

For assay [5] the following is noted: phase 2 clinical trial, cited from earlier work.
In the next assay the test system is mouse model of NASH. The settings on record: effects require MPC expression in hepatocytes; cited from earlier work.
The target in assay [6] is T1, mitochondrial pyruvate carrier (MPC) (Homo sapiens, UniProt O95563+Q9Y5U8).
T1 sequence (Q9Y5U8 1-109): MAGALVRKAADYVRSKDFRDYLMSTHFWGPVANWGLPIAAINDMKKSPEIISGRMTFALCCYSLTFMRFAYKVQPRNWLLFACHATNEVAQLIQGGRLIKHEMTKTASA
T1 sequence (O95563 1-127): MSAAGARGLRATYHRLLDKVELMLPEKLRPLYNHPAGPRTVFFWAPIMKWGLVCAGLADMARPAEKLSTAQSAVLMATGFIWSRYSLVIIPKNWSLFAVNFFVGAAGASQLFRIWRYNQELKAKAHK
The settings on record: cited from earlier work.

Consider `COc1cccc(C(=O)COc2ccc(CC3SC(=O)NC3=O)cc2)c1` (stereo not shown) [MSDC-0602], for which, in assay [1], the glucose levels entry is “significantly reduced”. For the same molecule, in the assay with pancreatic islets, the insulin staining entry is “increased” and the “number of islet cells” value is “increased”. Besides, in assay [2] (LS-MPC2-/- mice), the “glucose tolerance (GTT)” value is “no improvement in glucose tolerance” and the plasma insulin result is “decreased”. Besides, in assay [2] (WT mice), the “glucose tolerance (GTT)” value was “improved glucose tolerance” and the plasma insulin result was “decreased”. Further, in assay [3] (LS-MPC2-/- mice, single dose), the “plasma ALT and liver injury gene expression, response to acute treatment” value is given as “refractory”. Further, the “plasma ALT concentrations” value in assay [3] (WT mice, single dose, FIG. 11A) was “decreased”. Also, the “gene expression for hepatic stellate cell activation and fibrotic scar formation” value in assay [3] (WT mice, single dose, FIG. 11B) was “decreased”. Also, in the assay with serum miRNAs (HTF-C diet containing 331 ppm MSDC-0602, heat map of ~230 miRNAs), the “serum miRNAs altered in NASH model” value is listed as “largely corrected”. In the assay with serum miRNAs (HTF-C diet, FIGS. 13A-13C), the “serum miRNAs upregulated in NASH (mmu-miR-29c-3p, mmu-miR-802-3p, mmu-miR-802-5p)” value was “down”. The “serum miRNAs down in NASH (mmu-miR-127-3p, mmu-miR-129-2-3p, mmu-miR-615-3p)” value with serum miRNAs (HTF-C diet, FIGS. 13D-13F) is reported as “up”. Also, the “serum miRNAs mmu-miR-129-5p, mmu-miR-205-5p” value with serum miRNAs (HTF-C diet, FIGS. 13G-13H) is on record as “large effect”. The “increase of UCP1 expression, interaction with thyroid hormone” value in assay [4] is recorded as “synergy (much larger response)”. Moreover, the circulating glucose result in [5] (FIG. 1A) is “lowered”. Moreover, in assay [5] (FIG. 1B), the circulating insulin entry is reported as “lowered”. The liver damage result in the assay on mouse model of NASH is “prevents and reverse liver damage”. For the same molecule, the “MPC binding and modulation” value in assay [6] was “binds and modulates”.

For `COc1cccc(C(=O)COc2ccc(CC3SC(=O)[N-]C3=O)cc2)c1.[K+]` (stereo not shown) [MSDC-0602K], in [2] (WT mice), the “glucose tolerance (GTT)” value is recorded as “improves glucose tolerance”. Further, the “liver injury, major acute effects” value in [3] (acute dosing, effects require hepatocyte MPC) was “attenuate liver injury”. Also, the “increase of UCP1 expression, interaction with thyroid hormone” value in [4] is “synergistic”.
